The record followed here is PMC6009956, “Design, synthesis and biological activity of N^4-phenylsubstituted-7H-pyrrolo[2,3-d]pyrimidin-4-amines as dual inhibitors of aurora kinase A and epidermal growth factor receptor kinase” (Journal of Enzyme Inhibition and Medicinal Chemistry, 2017).

This assay has as its system p-HH3 in FADU and SAS SCCHN cell lines. The assay is described as follows: Western blot of p-HH3 in FADU and SAS cells. It is filed as cell-based. The following applies: 10 nM. On the procedure: Protein extracts (50 μg per lane) were electrophoretically separated on SDS-PAGE gels, transferred to membranes (Protran, Schleicher & Schuell, Dassel, Germany) and blotted with specific antibodies (actin, aurora A, aurora B: all from Sigma, Munich, Germany; S10-HH3: Millipore, Schwalbach, Germany; EGFR: Santa Cruz, Heidelberg, Germany; pEGFR: Invitrogen, Darmstadt, Germany; pAKT, pERK: both from New England Biolabs, Frankfurt, Germany).
Figure 4. Effects of compound 2 on EGFR and aurora kinases in growing SCCHN cell lines (A) Western blot analysis of EGFR (pEGFR, pERK, p-AKT) and aurora A (p-HH3) downstream target proteins following incubation with 100 μM compound 2 for the indicated time points in BHY and FADU SCCHN cell lines. (B) BHY and CAL cell lines treated for the indicated time points with 200 nM cetuximab. Western blot analysis of EGFR downstream targets. (long exposure and short exposure). […] Western blot analysis of p-HH3 at the indicated time points. Asterisk (*) represents unspecific band.
On the technique in general: In western blotting, separated proteins are transferred to a membrane and probed.

In the case of `COc1cc(Nc2ncc3c(n2)-c2ccc(Cl)cc2C(c2c(F)cccc2OC)=NC3)ccc1C(=O)O` [MLN8237], the “Histone H3 phosphorylation (p-HH3)” value is listed as “inhibition of histone H3 phosphorylation”.
